ChEMBL document CHEMBL1135401, “Pharmacophore mapping of a series of 2,4-diamino-5-deazapteridine inhibitors of Mycobacterium avium complex dihydrofolate reductase” (J Med Chem, 2002)

Experiments:
[1] = biological target: T1, Dihydrofolate reductase (Mycobacterium avium, UniProt O30463); assay: Antimycobacterial activity against Mycobacterium avium complex dihydrofolate reductase (MAC DHFR)
T1 sequence (O30463 whole entry): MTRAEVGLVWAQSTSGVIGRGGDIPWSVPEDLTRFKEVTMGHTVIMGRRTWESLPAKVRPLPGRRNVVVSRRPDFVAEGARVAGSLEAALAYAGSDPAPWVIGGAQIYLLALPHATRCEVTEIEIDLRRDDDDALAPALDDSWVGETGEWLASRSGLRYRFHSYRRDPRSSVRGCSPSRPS

[2] = biological target: T2, Dihydrofolate reductase (Homo sapiens, UniProt P00374); assay: Antimycobacterial activity against human dihydrofolate reductase (hDHFR)
T2 sequence (P00374 whole entry): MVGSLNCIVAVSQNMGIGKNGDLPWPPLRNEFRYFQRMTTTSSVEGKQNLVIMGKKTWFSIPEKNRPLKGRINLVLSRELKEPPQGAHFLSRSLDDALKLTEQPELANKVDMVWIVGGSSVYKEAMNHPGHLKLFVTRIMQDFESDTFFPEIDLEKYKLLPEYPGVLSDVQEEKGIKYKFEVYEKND

[3] = biological target: T1, Dihydrofolate reductase; assay: Antimycobacterial activity scale was evaluated and found to be highly active against MAC Dihydrofolate reductase
[4] = biological target: T2, Dihydrofolate reductase; assay: Antimycobacterial activity against Human dihydrofolatereductase (hDHFR)
[5] = biological target: T2, Dihydrofolate reductase

Compound	IC50 [1] [nM]	IC50 [2] [nM]	IC50 [3] [nM]	IC50 [4] [nM]	IC50 [5] [nM]
Cc1cc(NCc2cnc3nc(N)nc(N)c3c2C)c(Cl)cc1F	0.78	33			
Cc1cc(Br)cc(C)c1NCc1cnc2nc(N)nc(N)c2c1C	5.3	1900			
Cc1c(Cl)cccc1NCc1cnc2nc(N)nc(N)c2c1C	0.82	5.2			
Cc1c(CNc2cc(Br)ccc2Br)cnc2nc(N)nc(N)c12	0.7	4.6			
Cc1c(CNc2c3ccccc3cc3ccccc23)cnc2nc(N)nc(N)c12	620				
Cc1ccc(Cl)cc1NCc1cnc2nc(N)nc(N)c2c1C	0.79	6.1			
Cc1c(CNc2cc(Cl)ccc2Cl)cnc2nc(N)nc(N)c12	0.89	8			
Cc1cc(C)c(NCc2cnc3nc(N)nc(N)c3c2C)c(Cl)c1	3.8	850			
Cc1c(CNc2ccc3ncccc3c2)cnc2nc(N)nc(N)c12	0.95	7.1			
COc1cc(-c2ccccc2)ccc1NCc1cnc2nc(N)nc(N)c2c1C	0.91	68			
CCc1c(CNc2cc(C(F)(F)F)ccc2OC)cnc2nc(N)nc(N)c12	0.88	3.6			
Cc1c(CNC2CCCc3ccccc32)cnc2nc(N)nc(N)c12 (centres undefined)	280	3400			
Cc1ccc(NCc2cnc3nc(N)nc(N)c3c2C)cc1Br	0.6	3.7			
Cc1cc(Br)ccc1NCc1cnc2nc(N)nc(N)c2c1C	0.85	5.9			
COc1cc(SCc2cnc3nc(N)nc(N)c3c2C)cc(OC)c1OC	4.5	1200			
Cc1c(CNc2cnc3ccccc3c2)cnc2nc(N)nc(N)c12	1.2	12			
Cc1ccc(Cl)c(NCc2cnc3nc(N)nc(N)c3c2C)c1	0.95	44			
CCc1c(CNc2cc(OC)ccc2OC)cnc2nc(N)nc(N)c12	2.8	1000			
Cc1c(CNc2ccc3c(c2)Cc2ccccc2-3)cnc2nc(N)nc(N)c12	0.86	6.7			
COc1ccc(OC)c(SCc2cnc3nc(N)nc(N)c3c2C)c1	23	2500			
Cc1c(CNc2ccc(Cl)c3ccccc23)cnc2nc(N)nc(N)c12	0.43	2			
Cc1cc(NCc2cnc3nc(N)nc(N)c3c2C)ccc1Br	0.87	6.1			
Cc1cc(Cl)ccc1NCc1cnc2nc(N)nc(N)c2c1C		2.8			
COCc1c(CNc2cc(OC)ccc2OC)cnc2nc(N)nc(N)c12	2400	31000			
Cc1c(CNc2cc(F)ccc2F)cnc2nc(N)nc(N)c12	0.9	69			
COCc1c(CNc2ccc(OC)c(OC)c2)cnc2nc(N)nc(N)c12	1200	6100			

Compound	IC50 [1] [nM]	IC50 [2] [nM]	IC50 [3] [nM]	IC50 [4] [nM]	IC50 [5] [nM]
CCCOc1ccc(OCCC)c(NCc2cnc3nc(N)nc(N)c3c2C)c1	1	7300			
Cc1c(CNc2ccc3ccccc3c2)cnc2nc(N)nc(N)c12	0.76	10			
Cc1c(CNc2ccc3c4c(cccc24)-c2ccccc2-3)cnc2nc(N)nc(N)c12	1	6.2			
COc1cc(CCc2cnc3nc(N)nc(N)c3c2C)cc(OC)c1	1.5	990			
Cc1c(CNC2c3ccccc3-c3ccccc32)cnc2nc(N)nc(N)c12	320	5300			
COCc1c(CNc2cc(OC)c(OC)c(OC)c2)cnc2nc(N)nc(N)c12	550	1300			
Cc1c(CNc2cc(C(F)(F)F)ccc2Br)cnc2nc(N)nc(N)c12	0.82	3.2			
CCCOc1ccc(NCc2cnc3nc(N)nc(N)c3c2C)cc1OC	0.93	15	< 10		
Cc1c(CNc2cccc3ncccc23)cnc2nc(N)nc(N)c12	0.98	4.3			
COc1cc(OC)cc(N(C)Cc2cnc3nc(N)nc(N)c3c2C)c1	0.73	8.7			
Cc1c(CSc2ccc(Cl)cc2)cnc2nc(N)nc(N)c12	3.6	590			
Nc1nc(N)c2cc(CNc3cccc4ccccc34)cnc2n1	86	820			
COc1ccc(OC)c(NCc2cnc3nc(N)nc(N)c3c2C)c1	1.1	1000			
COc1ccc(C(F)(F)F)cc1N(C)Cc1cnc2nc(N)nc(N)c2c1C	1.2	36			
Cc1c(CN(C)c2cccc3c2CCCC3)cnc2nc(N)nc(N)c12	1.9	710			
COc1ccc(SCc2cnc3nc(N)nc(N)c3c2C)cc1OC	1.5	440			
Cc1cccc(SCc2cnc3nc(N)nc(N)c3c2C)c1	16	850			
COc1cc(NCc2cnc3nc(N)nc(N)c3c2)cc(OC)c1OC	240	3900			
Cc1ccc(C)c(NCc2cnc3nc(N)nc(N)c3c2C)c1	0.92	57			
Cc1c(CNc2ccc(Cl)cc2)cnc2nc(N)nc(N)c12	0.84	27			
Nc1nc(N)c2cc(CNc3ccc(Cl)cc3)cnc2n1	73	670			
COc1cc(NCc2cnc3nc(N)nc(N)c3c2C)cc(OC)c1OC	0.82	4.7			
COc1cc(NCc2cnc3nc(N)nc(N)c3c2C)cc(OC)c1	20			15	
Cc1c(CSc2cccc3ccccc23)cnc2nc(N)nc(N)c12	4.6	440			
COc1ccc(C)c(NCc2cnc3nc(N)nc(N)c3c2C)c1	0.4	150			
CCOc1ccc(OCC)c(N(C)Cc2cnc3nc(N)nc(N)c3c2C)c1	1.4	1000			

Compound	IC50 [1] [nM]	IC50 [2] [nM]	IC50 [3] [nM]	IC50 [4] [nM]	IC50 [5] [nM]
Cc1c(CNc2cccc3ccccc23)cnc2nc(N)nc(N)c12	0.81	4.3			< 100
COc1cc(NCc2cnc3nc(N)nc(N)c3c2C)cc(C(F)(F)F)c1	0.93	5.5			
Cc1c(CSc2cccc(Cl)c2)cnc2nc(N)nc(N)c12	3.9	420			
COc1cccc(SCc2cnc3nc(N)nc(N)c3c2C)c1	2.7	500			
CCOc1ccc(OCC)c(NCc2cnc3nc(N)nc(N)c3c2C)c1		2300			
COc1ccc(C)cc1NCc1cnc2nc(N)nc(N)c2c1C	0.86	300			
COc1ccc(C(F)(F)F)cc1NCc1cnc2nc(N)nc(N)c2c1C	0.66	2.7			
Cc1c(CNc2cccc3c2CCCC3)cnc2nc(N)nc(N)c12	0.93	142			
COc1ccc(NCc2cnc3nc(N)nc(N)c3c2C)cc1OC	0.7	5.1			
COc1ccc(OC)c(CCc2cnc3nc(N)nc(N)c3c2C)c1	47	2700			
COc1cc(Cl)c(C)cc1NCc1cnc2nc(N)nc(N)c2c1C	0.94	10			
Cc1c(CNc2ccc(OC(F)F)cc2)cnc2nc(N)nc(N)c12	1.1	20			
COCc1c(CNc2ccc(Cl)cc2)cnc2nc(N)nc(N)c12		2600			
Cc1c(CNc2cccc3cnccc23)cnc2nc(N)nc(N)c12	0.87	4			
Cc1ccc(F)cc1NCc1cnc2nc(N)nc(N)c2c1C	0.85	19			
Cc1c(CNc2ccccc2OC(F)F)cnc2nc(N)nc(N)c12	0.87	277			
Cc1ccc(NCc2cnc3nc(N)nc(N)c3c2C)cc1Cl	0.9	6.7			
Cc1ccc(F)c(NCc2cnc3nc(N)nc(N)c3c2C)c1	1.1	250			
COc1ccc(NCc2cnc3nc(N)nc(N)c3c2C)cc1F	0.91	14			
CCOc1ccc(NCc2cnc3nc(N)nc(N)c3c2C)cc1OC	1.1	18			
CCc1c(CNc2cc(C)ccc2OC)cnc2nc(N)nc(N)c12	3.1	370			
Cc1c(CNc2cc(C(F)(F)F)ccc2F)cnc2nc(N)nc(N)c12	0.86	4.1			
Cc1c(CNc2ccc3ccc4cccc5ccc2c3c45)cnc2nc(N)nc(N)c12	0.88	3.8			
Cc1c(CNc2cccc(Cl)c2)cnc2nc(N)nc(N)c12	0.82	17			
Cc1c(CNc2ccccc2Cl)cnc2nc(N)nc(N)c12	0.91	120			
Cc1c(CNc2ccc(Cl)c(Cl)c2)cnc2nc(N)nc(N)c12	0.92	5			
